Experimental data taken from PMC8709788, “Mandipropamid as a chemical inducer of proximity for in vivo applications” (Nature Chemical Biology, 2021).

Columns and labels:
[1] = target: T1, PYL / ABI (ABA CIP system) (Arabidopsis thaliana, UniProt Q8VZS8); assay: Gal4BD/VP16 induced-proximity luciferase expression assay; assay type: cell-based; conditions: COS-7 cells, […] h incubation; induced dimerization of PYL with ABI; text says ABA, legend of Fig. 2e names ABA and also ABA-AM
T1 construct: gene PYL1; TOM20-PYL and eGFP-ABI fusions for imaging; with Protein phosphatase 2C 56
T1 sequence (Q8VZS8 33-209 limits assumed): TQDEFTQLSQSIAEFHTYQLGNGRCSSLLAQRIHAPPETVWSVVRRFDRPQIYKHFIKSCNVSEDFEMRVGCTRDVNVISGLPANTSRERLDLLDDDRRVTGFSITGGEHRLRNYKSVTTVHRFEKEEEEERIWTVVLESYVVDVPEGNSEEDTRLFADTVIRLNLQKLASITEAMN
T1 sequence (P49597 126-423 partner limits assumed): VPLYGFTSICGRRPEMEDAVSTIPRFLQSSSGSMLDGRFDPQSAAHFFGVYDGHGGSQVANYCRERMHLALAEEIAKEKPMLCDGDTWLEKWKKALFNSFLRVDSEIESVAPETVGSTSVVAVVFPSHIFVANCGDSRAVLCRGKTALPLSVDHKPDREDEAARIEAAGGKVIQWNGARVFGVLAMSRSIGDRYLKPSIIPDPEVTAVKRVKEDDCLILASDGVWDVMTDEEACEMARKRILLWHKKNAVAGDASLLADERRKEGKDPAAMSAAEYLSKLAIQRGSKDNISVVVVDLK

[2] = target: T2, FKBP12 / FRB (rapamycin CIP system) (Homo sapiens, UniProt P42345+P62942); assay: RSICS fluorescence cross-correlation in living cells; assay type: cell-based; conditions: COS-7 cells, 15 min, ternary complex FKBP12-rapamycin-FRB
T2 construct: gene FKBP1A
T2 sequence (P62942 2-108): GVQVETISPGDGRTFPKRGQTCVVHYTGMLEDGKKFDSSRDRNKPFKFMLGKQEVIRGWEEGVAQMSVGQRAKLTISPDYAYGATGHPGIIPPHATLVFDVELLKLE
T2 sequence (P42345 2021-2113 limits assumed): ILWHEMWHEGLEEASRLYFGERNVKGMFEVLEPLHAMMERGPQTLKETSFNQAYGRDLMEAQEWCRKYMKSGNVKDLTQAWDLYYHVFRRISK

EC50 [1] [µM]	binding efficiency (interacting fraction) at 500 nM [2] [%]	Compound
30.8 ± 15.5	–	(+)-abscisic acid [compound 3]
–	71 ± 3	CO[C@H]1C[C@@H]2CC[C@@H](C)[C@@](O)(O2)C(=O)C(=O)N2CCCC[C@H]2C(=O)O[C@H]([C@H](C)C[C@@H]2CC[C@@H](O)[C@H](OC)C2)CC(=O)[C@H](C)/C=C(\C)[C@@H](O)[C@@H](OC)C(=O)[C@H](C)C[C@H](C)/C=C/C=C/C=C/1C [compound 5, rapamycin]
